Values quoted from earlier work, collected in PubChem BioAssay AID1259409 (Chemical Carcinogenesis Research Information System (CCRIS), 2018).

System: rodent chemically induced tumor inhibition, incidence and multiplicity
Assay: CCRIS tumor inhibitor studies
Text: The CCRIS database contains chemical records with carcinogenicity, mutagenicity, tumor promotion, and tumor inhibition test results. It was developed by the National Cancer Institute (NCI). Data are derived from studies cited in primary journals, current awareness tools, NCI reports, and other sources. Test results have been reviewed by experts in carcinogenesis and mutagenesis.
CCRIS provides historical information from the years 1985 - 2011. It is no longer updated.
This is an archive assay for CCRIS tumor inhibitor studies.

ClC1C(Cl)C(Cl)C(Cl)C(Cl)C1Cl (configuration not stated)
tumour outcome (control, treated, inhibition, significance) (Carcinogen: DIETHYLNITROSAMINE, 55-18-5, Dose [Inhibitor]: 0, 250 PPM IN DIET FOR 24 WK BEGINNING AT 28 D OF AGE (STUDY DURATION: 26 WK), Route [Inhibitor]: ORAL, Species: MOUSE, Strain/Sex: B6C3F1/MALE, Target Tissue: Type of Lesion: LIVER: ADENOMA, Dose [Carcinogen]: 5 UG/G BW IN 0.1 ML SALINE ONCE AT 15 D OF AGE, Promoter: NONE USED): 15/15 (100%), 15/15 (100%), 0%, not significant
tumour outcome (control, treated, inhibition, significance) (Dose [Inhibitor]: 0, 100 PPM IN DIET ADMINISTERED CONCURRENTLY WITH CARCINOGEN FOR 1 WK (STUDY DURATION: 82 WK), Route [Inhibitor]: ORAL, Species: RAT, Strain/Sex: BUFFALO/FEMALE, Target Tissue: Type of Lesion: LIVER: TUMOR, Dose [Carcinogen]: 1 PPM IN DIET FOR 1 WK, Promoter: NONE USED): 6/19 (32%), 1/20 (5%), 84%, not calculated
tumour outcome (control, treated, inhibition, significance) (Dose [Inhibitor]: 0, 100 PPM IN DIET ADMINISTERED CONCURRENTLY WITH CARCINOGEN FOR 3 WK (STUDY DURATION: 82 WK), Route [Inhibitor]: ORAL, Species: RAT, Strain/Sex: BUFFALO/FEMALE, Target Tissue: Type of Lesion: LIVER: TUMOR, Dose [Carcinogen]: 1 PPM IN DIET FOR 3 WK, Promoter: NONE USED): 6/19 (32%), 0/23 (0%), 100%, not calculated
tumour outcome (control, treated, inhibition, significance) (Dose [Inhibitor]: 0, 100 PPM IN DIET ADMINISTERED CONCURRENTLY WITH CARCINOGEN FOR 5 WK (STUDY DURATION: 82 WK), Route [Inhibitor]: ORAL, Species: RAT, Strain/Sex: BUFFALO/FEMALE, Target Tissue: Type of Lesion: LIVER: TUMOR, Dose [Carcinogen]: 1 PPM IN DIET FOR 5 WK, Promoter: NONE USED): 6/19 (32%), 0/17 (0%), 100%, not calculated
tumour outcome (control, treated, inhibition, significance) (Dose [Inhibitor]: 0, 100 PPM IN DIET ADMINISTERED CONCURRENTLY WITH CARCINOGEN FOR 10 WK (STUDY DURATION: 82 WK), Route [Inhibitor]: ORAL, Species: RAT, Strain/Sex: BUFFALO/FEMALE, Target Tissue: Type of Lesion: LIVER: TUMOR, Dose [Carcinogen]: 1 PPM IN DIET FOR 10 WK, Promoter: NONE USED): 6/19 (32%), 0/22 (0%), 100%, not calculated
tumour outcome (control, treated, inhibition, significance) (Dose [Inhibitor]: 0, 100 PPM IN DIET ADMINISTERED CONCURRENTLY WITH CARCINOGEN FOR 15 WK (STUDY DURATION: 82 WK), Route [Inhibitor]: ORAL, Species: RAT, Strain/Sex: BUFFALO/FEMALE, Target Tissue: Type of Lesion: LIVER: TUMOR, Dose [Carcinogen]: 1 PPM IN DIET FOR 15 WK, Promoter: NONE USED): 6/19 (32%), 0/13 (0%), 100%, not calculated

CC1=C(/C=C/C(C)=C/C=C/C(C)=C/CO)C(C)(C)CCC1
tumour outcome (control, treated, inhibition, significance) (Carcinogen: BENZO[A]PYRENE, 50-32-8, Dose [Inhibitor]: 0, 4000 IU/KG DIET BEGINNING 170 D PRIOR TO CARCINOGEN AND CONTINUING FOR STUDY DURATION (STUDY DURATION: 512 D), Route [Inhibitor]: ORAL, Species: HAMSTER, Strain/Sex: SYRIAN/MALE, Target Tissue: Type of Lesion: RESPIRATORY TRACT: TUMOR, Dose [Carcinogen]: 10 MG IN SALINE PLUS 8 MG FERRIC OXIDE 1/2 WK FOR 10 WK, Promoter: NONE USED): 44%, 36%, 18%, not significant
tumour outcome (control, treated, inhibition, significance) (Carcinogen: BENZO[A]PYRENE, 50-32-8, Dose [Inhibitor]: 0, 100000 IU/KG DIET BEGINNING 170 D PRIOR TO CARCINOGEN AND CONTINUING FOR STUDY DURATION (STUDY DURATION: 512 D), Route [Inhibitor]: ORAL, Species: HAMSTER, Strain/Sex: SYRIAN/MALE, Target Tissue: Type of Lesion: RESPIRATORY TRACT: TUMOR, Dose [Carcinogen]: 10 MG IN SALINE PLUS 8 MG FERRIC OXIDE 1/2 WK FOR 10 WK, Promoter: NONE USED): 44%, 35%, 20%, not significant

CC(C)=C1C=CC(O)CC1 (configuration not stated)
tumour outcome (control, treated, inhibition, significance) (Carcinogen: 7,12-DIMETHYLBENZ[A]ANTHRACENE, 57-97-6, Dose [Inhibitor]: 0, 12 NMOL PER REPEATED APPLICATION FOR 20 WK (STUDY DURATION: 20 WK), Route [Inhibitor]: DERMAL, Species: MOUSE, Strain/Sex: CD-1/FEMALE, Target Tissue: Type of Lesion: SKIN: TUMOR, Dose [Carcinogen]: 100 UG ONCE, Promoter: OKADAIC ACID, 78111-17-8): 87%, 67%, 23%, not calculated

O=C(O)c1cc(=O)[nH]c(=O)[nH]1
tumour outcome (control, treated, inhibition, significance) (Carcinogen: URETHANE, 51-79-6, Dose [Inhibitor]: 0.1 MG/GM BW AS A 1% SUSPENSION IN DISTILLED WATER ONCE 14 WK OF AGE SIMULTANEOUS WITH CARCINOGEN TREATMENT (STUDY DURAT, Route [Inhibitor]: INTRAPERITONEAL, Species: MOUSE, Strain/Sex: SWR/MALE, Target Tissue: Type of Lesion: LUNG: ADENOMA, Dose [Carcinogen]: 1 MG/G BW IN DISTILLED WATER ONCE, Promoter: NONE USED): 100%, 100%, 0%, not significant
tumour outcome (control, treated, inhibition, significance) (Carcinogen: URETHANE, 51-79-6, Dose [Inhibitor]: 0.1 MG/GM BW AS A 1% SUSPENSION IN DISTILLED WATER TWICE AT 13 WK OF AGE GIVEN 24 HR APART STARTING 24 HR PRIOR TO CARCI, Route [Inhibitor]: INTRAPERITONEAL, Species: MOUSE, Strain/Sex: SWR/MALE, Target Tissue: Type of Lesion: LUNG: ADENOMA, Dose [Carcinogen]: 0.5 MG/GM BW IN DISTILLED WATER ONCE AT SAME TIME AS LAST AGENT TREATMENT, Promoter: NONE USED): 83%, 100%, -20%, not significant
tumour outcome (control, treated, inhibition, significance) (Carcinogen: URETHANE, 51-79-6, Dose [Inhibitor]: 0.1 MG/GM BW AS A 1% SUSPENSION IN DISTILLED WATER TWICE AT 22 WK OF AGE GIVEN 24 HR APART STARTING 24 HR PRIOR TO CARCI, Route [Inhibitor]: INTRAPERITONEAL, Species: MOUSE, Strain/Sex: SWR/MALE, Target Tissue: Type of Lesion: LUNG: ADENOMA, Dose [Carcinogen]: 0.5 MG/GM BW IN DISTILLED WATER ONCE AT SAME TIME AS LAST AGENT TREATMENT, Promoter: NONE USED): 71%, 71%, 0%, not significant
